Columns and labels:
LOLRI = experiment: A. Herbicidal pre-emergence action on harmful plants (Tables A); type: in vivo, Lolium rigidum; details: visual grading after ca. 3 weeks vs untreated controls, 100% = plants have died off, 0% = as control plants
Summary of the method: (§1)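 Greenhouse pre-emergence test: compound applied to the soil surface at 1280 g/ha or below, and herbicidal effect rated visually at ca. 3 weeks on a 0–100% scale against untreated plants.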

MATIN = experiment: as above; type: in vivo, Matricaria inodora; details: visual grading after ca. 3 weeks vs untreated controls, 100% = plants have died off, 0% = as control plants
Summary of the method: as §1

SETVI = experiment: as above; type: in vivo, Setaria viridis; details: visual grading after ca. 3 weeks vs untreated controls, 100% = plants have died off, 0% = as control plants
Summary of the method: as §1

STEME = experiment: as above; type: in vivo, Stellaria media; details: visual grading after ca. 3 weeks vs untreated controls, 100% = plants have died off, 0% = as control plants
Summary of the method: as §1

DIGSA = experiment: C. Herbicidal pre-emergence action, weed and crop plants (Tables C); type: in vivo, Digitaria sanguinalis
Source text: Seeds of mono- and dicotyledonous weed plants and crop plants were sown, in plastic or organic planting pots, in sandy loam and covered with soil. The compounds according to the invention, formulated in the form of wettable powders (WP) or as emulsifiable concentrates (EC), were applied to the surface of the covering soil as aqueous suspension or emulsion, with the addition of 0.5% of an additive, at an application rate of 6001 of water/ha (converted). Following treatment, the pots were placed in a greenhouse and kept under optimum growth conditions for the test plants. The visual grading of the damage to the test plants was carried out after ca. 3 weeks in comparison to untreated controls (herbicidal effect in percent (%): 100% effect = plants have died off, 0% effect = as control plants). Tables C1 to C12 below show the effects of selected compounds of the general formula (I) according to table 1 on various harmful plants and an application rate corresponding to 320 g/ha or below obtained by the experimental procedure mentioned above. Table C1: pre-emergence activity at 320g/ha against KCHSC in %

GLXMA [1] = experiment: D. Pre-emergence effects on crop plants (Tables D); type: in vivo, Glycine max; details: crop plant
Summary of the method: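 Pre-emergence soil-surface treatment at 320 g/ha or lower, using wettable-powder or emulsifiable-concentrate formulations in water plus 0.5% additive, over freshly sown seeds in covered sandy loam. Damage was rated visually as percent versus untreated pots (100% = dead plants) after about 3 weeks of greenhouse growth.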

TRZAS = experiment: F. Post-emergence effects on crop plants (Tables F); type: in vivo, Triticum aestivum; details: crop plant
Summary of the method: (§2)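 Plants were grown in sandy loam in a greenhouse and sprayed post-emergence at the single-leaf stage, 2–3 weeks after sowing. Visual damage was scored after ca. 3 weeks against untreated controls (0% = as control, 100% = dead).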

GLXMA [2] = experiment: as above; type: in vivo, Glycine max; details: crop plant
Summary of the method: as §2

POAAN = experiment: B. Herbicidal post-emergence action on harmful plants (Tables B); type: in vivo, Poa annua
Summary of the method: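 Activity was scored visually as % damage (100% = dead, 0% = like untreated) about 3 weeks after treatment. Plants at the one-leaf stage, 2-3 weeks old, were sprayed with WP/EC formulations plus 0.5% additive (600 L/ha water, up to 1280 g/ha). Plants were grown in sandy loam in a greenhouse.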

VIOTR = experiment: C. Herbicidal pre-emergence action, weed and crop plants (Tables C); type: in vivo, Viola tricolor
Summary of the method: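 Seeds were sown in sandy loam and covered with soil. WP or EC formulations were sprayed onto the soil surface as aqueous suspension or emulsion with 0.5% additive, at rates of 320 g/ha or below. Plants were kept in a greenhouse, and damage was scored visually after about 3 weeks as % effect versus untreated controls (100% = dead, 0% = like control).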

[3] = application rate 80 g/ha, Table C5b
[4] = application rate 320 g/ha, Table C5a
[5] = application rate 80 g/ha, Table D4b
[6] = application rate 320 g/ha, Table D4a
[7] = application rate 1280 g/ha, Table B7a
[8] = application rate 80 g/ha, Table C12b
[9] = application rate 320 g/ha, Table C12a
[10] = application rate 320 g/ha, Table B7b

pre-emergence activity against GLXMA (GLXMA [1]; [5]) [%] | pre-emergence activity against GLXMA (GLXMA [1]; [6]) [%] | SMILES | pre-emergence activity against LOLRI (LOLRI; application rate 320 g/ha) [%] | pre-emergence activity against LOLRI (LOLRI; application rate 1280 g/ha) [%] | pre-emergence activity against MATIN (MATIN; application rate 1280 g/ha) [%] | pre-emergence activity against SETVI (SETVI; application rate 320 g/ha) [%] | pre-emergence activity against SETVI (SETVI; application rate 1280 g/ha) [%] | pre-emergence activity against STEME (STEME; application rate 320 g/ha) [%] | pre-emergence activity against STEME (STEME; application rate 1280 g/ha) [%] | pre-emergence activity against DIGSA (DIGSA; [3]) [%] | pre-emergence activity against DIGSA (DIGSA; [4]) [%] | post-emergence activity against TRZAS in % (TRZAS; application rate 80 g/ha) [%] | post-emergence activity against TRZAS in % (TRZAS; application rate 320 g/ha) [%] | post-emergence activity against GLXMA in % (GLXMA [2]; application rate 320 g/ha) [%] | pre-emergence activity against MATIN (MATIN; application rate 320 g/ha) [%] | post-emergence activity against POAAN (POAAN; [7]) [%] | pre-emergence activity against VIOTR (VIOTR; [8]) [%] | pre-emergence activity against VIOTR (VIOTR; [9]) [%] | post-emergence activity against POAAN (POAAN; [10]) [%] | pre-emergence activity against LOLRI (LOLRI; application rate 80 g/ha) [%] | further results
0 | 10 | COCc1nn(C)cc1C(=O)N1CCCC1C(O)c1ccccc1F (single isomer, unassigned) [Example I-053] | 90 | 90 | 90 | 90 | 90 | 90 | 90 | 80 | 90 | 10 | 20 | 20 | – | – | – | – | – | – | –
0 | 0 | C=C(c1ccccc1F)C1CCCN1C(=O)c1cn(C)nc1COC (racemic) [Example I-023] | 100 | 100 | 90 | 90 | 90 | 90 | 90 | 90 | 100 | – | – | – | 90 | 90 | 80 | 80 | – | – | –
– | 0 | COCc1c(C(=O)N2CCCC2Cc2ccccc2Cl)cnn1C (racemic) [Example I-170] | 90 | 90 | 90 | 90 | 90 | – | – | – | – | 20 | – | – | – | 90 | – | – | 90 | – | post-emergence activity against GLXMA in % (GLXMA [2]; application rate 80 g/ha): 10%
– | – | COCc1nn(C)cc1C(=O)N1CCCC1Cc1ccccc1F (single isomer, unassigned) [Example I-003] | 100 | 100 | 90 | 100 | 100 | 90 | 90 | – | – | – | – | 10 | 90 | 90 | 80 | 90 | 90 | 100 | pre-emergence activity against SETVI (SETVI; application rate 80 g/ha): 100%; pre-emergence activity against STEME (STEME; application rate 80 g/ha): 90%; post-emergence activity against POAAN (POAAN; application rate 80 g/ha, Table B7c): 90%
– | 0 | COCc1c(C(=O)N2CCCC2Cc2ccccc2F)cnn1C (single isomer, unassigned) [Example I-157] | 90 | 90 | 90 | 90 | 90 | 90 | 100 | – | 90 | 0 | 20 | 0 | – | 100 | – | 90 | 100 | – | –
0 | – | CNC(=O)n1cc(C(=O)N2CCCC2Cc2ccccc2F)c(COC)n1 (racemic) [Example I-051] | 100 | 100 | 90 | 90 | 90 | 90 | 90 | 90 | 100 | – | – | 10 | – | 90 | 80 | 80 | – | 100 | –
